Here are results for 5 compounds from patent US5783402A, “Method of identifying ligands and anatgonists of G-protein coupled receptor” (The United States of America as represented by the …, priority 1996, dated 1998).

One data set concerns rat cannabinoid receptor. Put plainly: Inhibition of forskolin-mediated induction of β-galactosidase in cannabinoid receptor transfected LVIP2.OZc cells. Format: cell-based. As to conditions: 1 μM CP55940, 0.5 μM forskolin, IBMX, 6 hours.
The subject of data set [1] is endogenous receptors for adenosine in LVIP2.OZc cells. Put plainly: β-galactosidase (ONPG) induction in untransfected LVIP2.OZc cells by NECA (endogenous adenosine receptors). Format: cell-based, mouse. As to the method: (§1) FIG. 1. Detection of β-galactosidase of color development of o-nitrophenol. LVIP2.OZc cells were exposed for 8 hours to control medium (containing 0.5 mM IBMX) (.quadrature.), or control medium containing 0.5 μM forskolin (.cndot.), or control medium containing 1 μM (.box-solid.) or 10 NECA (.tangle-solidup.). After cell lysis and addition of the substrate ONPG, enzyme activity was measured as optical density at 405 nm at various time intervals. Data are mean±S.D. taken from one experiment that is representative of several.
(§2) FIG. 2. Induction of β-galactosidase as a response to length of ligand exposure. LVIP2.OZc cells were incubated for 1, 2, 4, 6, 8, 12, 15 and 18 hours in control medium (containing 0.5 mM IBMX) (.quadrature.), or control medium containing 0.5 μM forskolin (.cndot.), or control medium containing 1 μM NECA (.box-solid.), or control medium containing 1 μM PGE2 (.tangle-solidup.). Data are mean±S.D. from one representative experiment.
(§3) FIG. 3. Induction of β-galactosidase as a response to different doses of ligands. LVIP2.OZc cells were treated for 8 hours with control medium (containing 0.5 mM IBMX), and 0.1 or 0.2 or 0.5 or 1 μM forskolin (.cndot.), control medium and 0.1 or 0.5 or 1 or 10 μM NECA (.box-solid.), control medium containing 0.1 or 0.5 or 1 or 10 μM PGE2 (.tangle-solidup.). Data are mean±S.D. from a representative experiment.
(§4) Care should be taken to avoid foaming.
Therefore, a quantitative assay was developed for the cAMP-mediated increase in β-galactosidase activity. This assay was performed in 96 well plates after solubilization of the cells and incubation with the substrate ONPG. Thus, the change in optical density over a defined period of time was directly proportional to the level of β-galactosidase activity. The optical density increased linearly with time up to 1.5. The LVIP2.OZc cells were determined to contain endogenous […] -coupled receptors for PGE (prostaglandin E2) and adenosine. In pilot studies, untransfected cells were treated for 8 hours with IBMX in the presence or absence of NECA [5'-(N-ETHYLCARBOXAMIDO)-ADENOSINE, adenosine A2 receptor agonist], or forskolin, to increase intracellular cAMP levels (FIG. 1). […] The enzyme levels generated by 1 μM NECA, 10 μM NECA, and 0.5 μM forskolin were determined to be 8, 30, and 48 -fold higher, respectively, than in the IBMX control cells. The differences were discernible by visual examination after 3 to 6 hours.
In pilot studies, cells were exposed to IBMX in the presence or absence for forskolin (0.5 μM), NECA (1 μM), or prostaglandin E2 (1 μM) for 2, 4, 6, 8, 15, or 18 hours and their β-galactosidase activities measured. […] Dose-response data (FIG. 3) were obtained by treating cells with forskolin, NECA, or PGE2 for 8 hours. […]

The test system of data set [2] is endogenous receptors for PGE (prostaglandin E2) in LVIP2.OZc cells. Put plainly: β-galactosidase (ONPG) induction in untransfected LVIP2.OZc cells by PGE2 (endogenous PGE receptors). Format: cell-based, mouse. As to conditions: 8 hours, IBMX. As to the method: as §2
FIG. 3. Induction of β-galactosidase as a response to different doses of ligands. LVIP2.OZc cells were treated for 8 hours with control medium (containing 0.5 mM IBMX), and 0.1 or 0.2 or 0.5 or 1 μM forskolin (.cndot.), control medium and 0.1 or 0.5 or 1 or 10 μM NECA (.box-solid.), control medium containing 0.1 or 0.5 or 1 or 10 μM PGE2 (.tangle-solidup.). […]
(§5) Therefore, a quantitative assay was developed for the cAMP-mediated increase in β-galactosidase activity. […] The LVIP2.OZc cells were determined to contain endogenous […] -coupled receptors for PGE (prostaglandin E2) and adenosine. […] The enzyme levels generated by 1 μM NECA, 10 μM NECA, and 0.5 μM forskolin were determined to be 8, 30, and 48 -fold higher, respectively, than in the IBMX control cells. […]
(§6) In pilot studies, cells were exposed to IBMX in the presence or absence for forskolin (0.5 μM), NECA (1 μM), or prostaglandin E2 (1 μM) for 2, 4, 6, 8, 15, or 18 hours and their β-galactosidase activities measured. […]

The subject of the next data set is dopamine D2L receptor. As to conditions: 10 μM agonist, 0.5 μM forskolin, IBMX, 6 hours.
The subject of data set [3] is LVIP2.OZc cells. Briefly: X-gal staining of LVIP2.OZc cells (blue positive cells) after forskolin + IBMX. Format: cell-based, mouse. As to conditions: forskolin 5 μM + IBMX 0.5 mM, 6 to 18 hours.
Method: Hygromycin-resistant Ltk^- clones were screened for induction of β-galactosidase after addition of forskolin (10 μM) and IBMX (0.5 μM).
In preliminary experiments, forskolin (5 μM) and IBMX (0.5 mM) was used to increase cyclic AMP levels. […] Next, the cells were transfected with human β2 -adrenergic receptor cDNA in the pcD expression vector. […] Ascorbic acid was added to prevent oxidation of isoproterenol.
The subject of data set [4] is LVIP2.OZc cells. Put plainly: β-galactosidase (ONPG) induction in untransfected LVIP2.OZc cells by forskolin. Format: cell-based, mouse. As to conditions: 8 hours. Here is the method: as §1, §2, §3, §4, §5, §6

From the text for dopamine D2L receptor: Data are mean±S.D. from one representative experiment. […] Data are mean±S.D. from one representative experiment. […] Data are mean±S.D. from one representative experiment.
Transfection of cells. Cells were transfected by the calcium phosphate transfection protocol of Chen and Okayama. For each plasmid DNA preparation, the amount of DNA required for formation of an optimum calcium phosphate-DNA precipitate varies; thus, a dose response study is desirable. […]
β-Galactosidase microassay. β-galactosidase activity was measured with a microplate reader (Molecular Devices, Palo Alto). […]
All the steps in the microassay were carried out at room temperature. […] After an additional 10 minutes, 24 μl of ONPG (4 mg/ml in assay buffer; prepared daily) was added, and the optical density per well at 405 nm was determined with a plate reader. Readings were taken through 1.5 OD at 405 nm, within the linear portion of the color development. The initial rates, expressed as mOD/minute, are linearly related to β-galactosidase enzyme concentration over an enzyme concentration range of 0.1 to 100 mU (one unit hydrolyzes one micromole of ONPG per minute at 25 degrees, pH 7.5). […]
Method for rat cannabinoid receptor: Cells were exposed for 6 hours to medium containing 0.5 mM IBMX, 0.5 mM BSA and 0.5 μM forskolin ±1 μM CP55940.
One hundred microliters of medium containing IBMX/ascorbic acid or forskolin (1 μM)/IBMX/ascorbic acid were added to control wells. […] Each set of conditions was carried out in quadruplicate. After an eight hour exposure to ligand the cells were washed with 200 μl phosphate buffered saline and β-galactosidase activity was assayed.
β-Galactosidase microassay. β-galactosidase activity was measured with a microplate reader (Molecular Devices, Palo Alto).
All the steps in the microassay were carried out at room temperature. The assay buffer is composed of 100 mM sodium phosphate, 2 mM MgSO4, 0.1 mM MnCl2, pH 8.0. The adherent cells were washed with PBS, the plate drained and 25 μl/well of hypotonic lysis buffer added to each well, (dilute 1 part buffer with 9 parts water). […] After an additional 10 minutes, 24 μl of ONPG (4 mg/ml in assay buffer; prepared daily) was added, and the optical density per well at 405 nm was determined with a plate reader. Readings were taken through 1.5 OD at 405 nm, within the linear portion of the color development. The initial rates, expressed as mOD/minute, are linearly related to β-galactosidase enzyme concentration over an enzyme concentration range of 0.1 to 100 mU (one unit hydrolyzes one micromole of ONPG per minute at 25 degrees, pH 7.5).

Turning to `CCCCCCC(C)(C)c1ccc([C@@H]2C[C@H](O)CC[C@H]2CCCO)c(O)c1` [CP55940], the “decrease of forskolin stimulated activity” value in the data set with rat cannabinoid receptor was 15%.
With `CCNC(=O)[C@H]1O[C@@H](n2cnc3c(N)ncnc32)[C@H](O)[C@@H]1O` [NECA, 5'-(N-ETHYLCARBOXAMIDO)-ADENOSINE], the “enzyme level relative to IBMX control cells” value in data set [1] (1 μM NECA, 8 hours, IBMX) is 8 -fold. Besides, in data set [1] (8 hours, IBMX), the “concentration required to achieve maximum enzyme induction” value came out at 10 µM and the “β-galactosidase activity versus IBMX-treated control cells (in words)” value is listed as “considerably higher levels”. Also, the “enzyme level relative to IBMX control cells” value in data set [1] (lvip2.ozc cells, 8 h, 10 µM) is recorded as 30 -fold.
As for `CCCCC[C@H](O)/C=C/[C@H]1[C@H](O)CC(=O)[C@@H]1C/C=C\CCCC(=O)O` [PGE2, prostaglandin E2], in data set [2], the “concentration required to achieve maximum enzyme induction” value is 10 µM.
Turning to `NCCc1ccc(O)c(O)c1` [dopamine], in the data set on dopamine D2L receptor, the “inhibition of forskolin-stimulated increase of β-galactosidase activity” value is given as “Significant inhibition”.
With `C=C[C@@]1(C)CC(=O)[C@]2(O)[C@@]3(C)[C@@H](O)CCC(C)(C)[C@@H]3[C@H](O)[C@H](OC(C)=O)[C@@]2(C)O1` [forskolin], the “cells that developed a blue color” value in the data set on LVIP2.OZc cells [3] was “More than 90%”. For the same compound, the “β-galactosidase activity versus IBMX-treated control cells (in words)” value in the data set on LVIP2.OZc cells [4] is reported as “considerably higher levels”. In the data set with LVIP2.OZc cells [4] (IBMX), the “concentration producing maximum effect” value is 0.5 µM. The fold induction at 0.5 µM in the data set with LVIP2.OZc cells [4] (Mus musculus, 0.5 μM forskolin, IBMX, read-out: enzyme level relative to IBMX control cells) came to 48.
